Where a name gives a salt, the structure may show the parent alone. Read-outs that look alike come from different tables or passages of the source.
Target: T1, PD brain-derived alpha-synuclein aggregates (Homo sapiens, UniProt P37840)
T1 construct: from tissue; host or cells: human PD donor brain, sarkosyl-insoluble pellet
Assay: Micro-radiobinding competition assay for the determination of binding affinity
Conditions: for inhibition at 0.1 µM: read-out: Micro-radiobinding competition assay Competition at 100 nM (%); for inhibition at 1 µM: read-out: Micro-radiobinding competition assay Competition at 1 μM (%); for Ki: * = mean of two independent experiments, two donors
Procedure: The procedure was adapted from the protocol described in Spillantini et al., 1998. Frozen tissue blocks from PD donors were thawed on ice and homogenized using a glass dounce homogenizer. The homogenate was then centrifuged at 11,000×g (12,700 RPM) in an ultracentrifuge (Beckman, XL100K) for 20 minutes at 4° C. using a pre-cooled 70.1 rotor (Beckman, 342184). Pellets were resuspended in extraction buffer [10 mM Tris-HCl pH 7.4, 10% sucrose, […], 1% protease inhibitor (Calbiochem 539131), 1 mM EGTA, 1% phosphatase inhibitor (Sigma P5726 and P0044)] and centrifuged at 15,000×g (14,800 RPM, a 70.1 Ti rotor) for 20 minutes at 4° C. Pellets were discarded and sarkosyl (20% stock solution, Sigma L7414) was added to the supernatants to a final concentration of 1% at room temperature for one hour. This solution was then centrifuged at 100,000×g (38,000 RPM, 70.1 Ti rotor) for one hour at 4° C. Pellets containing enriched alpha-synuclein aggregates were resuspended in PBS and stored at −80° C. until use.
PD brain-derived alpha-synuclein aggregates were spotted onto microarray slides. The slides were incubated with [^3H]-alpha-synuclein reference at 6 nM or 20 nM and the example compounds (non-radiolabelled) at 1 μM and 100 nM. In some cases, the non-radiolabelled example compounds were further assessed for a range of different concentrations, varying from 0.05 nM to 2 μM. After incubation, slides were washed and scanned by a real-time autoradiography system (BeaQuant, ai4R). Quantification of the signal was performed by using the Beamage image analysis software (ai4R). Non-specific signal was determined with an excess of non-radiolabelled Example-1 (2 μM) and specific binding was calculated by subtracting the non-specific signal from the total signal. Competition was calculated as percent, where 0% was defined as the specific binding in the presence of vehicle and 100% as the values obtained in the presence of excess of the non-radiolabelled Example-1. Ki values were calculated in GraphPad Prism7 by applying a nonlinear regression curve fit using a one site, specific binding model. All measurements were performed with at least two technical replicates. For compounds tested in more than one experiment, the mean of the replicates or Ki values in independent experiments is reported.
Results: Example compounds were assessed for their potency to compete with the binding of [^3H]-reference alpha-synuclein ligand to PD patient brain-derived alpha-synuclein aggregates. Results of the micro-radiobinding competition assay for the example compounds tested are shown in Table 3 as: % competition at 1 μM and 100 nM.
Table 3: Assessment of binding affinity by micro-radiobinding competition assay on human PD brain-derived alpha-synuclein aggregates. Percent (%) competition over the tritiated [^3H]-Example-1 ligand in the presence of 1 μM and 100 nM of example compounds 1-9. Ki values are also shown for selected example compounds. *, mean of Ki values in two independent experiments using PD brain-derived homogenates from two different donors.

[1] = 100 nM non-radiolabelled compound, competition over tritiated [3H]-Example-1 ligand, human PD brain-derived alpha-synuclein aggregates
[2] = 1 μM non-radiolabelled compound, competition over tritiated [3H]-Example-1 ligand, human PD brain-derived alpha-synuclein aggregates
[3] = human PD brain-derived alpha-synuclein aggregates

Compound | inhibition at 0.1 µM [1] [%] | inhibition at 1 µM [2] [%] | Ki [3] [nM] | inhibition at 0.1 µM [%] | inhibition at 1 µM [%]
Cn1cc(N2Cc3cc(-c4ccc(N5CC[C@H](F)C5)nc4)nn3C2=O)cn1 [Example 6, (S)-2-(6-(3-fluoropyrrolidin-1-yl)pyridin-3-yl)-5-(1-methyl-1H-pyrazol-4-yl)-4H-imidazo[1,5-b]pyrazol-6(5H)-one] |  |  |  | 43 | 93
O=C1N(c2cnn(CCF)c2)Cc2cc(-c3ccc(N4CCCC4)nc3)nn21 [Example 8, 5-(1-(2-fluoroethyl)-1H-pyrazol-4-yl)-2-(6-(pyrrolidin-1-yl)pyridin-3-yl)-4H-imidazo[1,5-b]pyrazol-6(5H)-one] |  |  | 64 | 27 | 73
O=C1N(c2cccnc2)Cc2cc(-c3ccc(Br)nc3)nn21 [Example 9, 2-(6-bromopyridin-3-yl)-5-(pyridin-3-yl)-4H-imidazo[1,5-b]pyrazol-6(5H)-one] |  |  |  | 45 | 62
O=C1N(c2cccnc2)Cc2cc(-c3cnc(N4CC[C@@H](F)C4)cn3)nn21 [Example 10, (R)-2-(5-(3-fluoropyrrolidin-1-yl)pyrazin-2-yl)-5-(pyridin-3-yl)-4,5-dihydro-6H-imidazo[1,5-b]pyrazol-6-one] | 72 | 100 |  |  | 
O=C1N(c2cccnc2)Cc2cc(-c3cnc(N4CC[C@@H](F)C4)c(F)c3)nn21 [Example 12, (R)-2-(5-fluoro-6-(3-fluoropyrrolidin-1-yl)pyridin-3-yl)-5-(pyridin-3-yl)-4,5-dihydro-6H-imidazo[1,5-b]pyrazol-6-one hydrogen chloride salt] | 76 | 90 | 34 |  | 

Second part, led by results:

inhibition at 0.1 µM [1] [%] | inhibition at 1 µM [2] [%] | Ki [3] [nM] | Compound | inhibition at 0.1 µM [%] | inhibition at 1 µM [%]
79 | 98 |  | O=C1N(c2cncs2)Cc2cc(-c3ccc(N4CCC(F)C4)nc3)nn21 (stereo in doubt) [Example 16, (R)-2-(6-(3-fluoropyrrolidin-1-yl)pyridin-3-yl)-5-(thiazol-5-yl)-4,5-dihydro-6H-imidazo[1,5-b]pyrazol-6-one hydrogen chloride salt] |  | 
87 | 97 | 46 | O=C1N(c2cccnc2)Cc2cc(-c3ccc(N4CC[C@@H](F)C4)nc3)nn21 [Example 2, (R)-2-(6-(3-fluoropyrrolidin-1-yl)pyridin-3-yl)-5-(pyridin-3-yl)-4H-imidazo[1,5-b]pyrazol-6(5H)-one hydrochloride] |  | 
74 | 89 |  | O=C1N(c2ccccn2)Cc2cc(-c3ccc(N4CC[C@@H](F)C4)nc3)nn21 [Example 3, (R)-2-(6-(3-fluoropyrrolidin-1-yl)pyridin-3-yl)-5-(pyridin-2-yl)-4H-imidazo[1,5-b]pyrazol-6(5H)-one] |  | 
94 | 100 |  | O=C1N(c2ccccn2)Cc2cc(-c3ccc(N4CC[C@H](F)C4)nc3)nn21 [Example 4, (S)-2-(6-(3-fluoropyrrolidin-1-yl)pyridin-3-yl)-5-(pyridin-2-yl)-4H-imidazo[1,5-b]pyrazol-6(5H)-one hydrochloride] |  | 
59 | 89 | 26 | O=C1N(c2ccncc2)Cc2cc(-c3ccc(N4CC[C@H](F)C4)nc3)nn21 [Example 5, (S)-2-(6-(3-fluoropyrrolidin-1-yl)pyridin-3-yl)-5-(pyridin-4-yl)-4H-imidazo[1,5-b]pyrazol-6(5H)-one hydrochloride] |  | 
73 | 96 |  | Cn1ccc(N2Cc3cc(-c4ccc(N5CC[C@H](F)C5)nc4)nn3C2=O)n1 [Example 7, (S)-2-(6-(3-fluoropyrrolidin-1-yl)pyridin-3-yl)-5-(1-methyl-1H-pyrazol-3-yl)-4H-imidazo[1,5-b]pyrazol-6(5H)-one hydrochloride] |  | 
25 | 76 | 252 | O=C1N(c2cccnc2)Cc2cc(-c3cnc(N4CC[C@H](F)C4)cn3)nn21 [Example 11, (S)-2-(5-(3-fluoropyrrolidin-1-yl)pyrazin-2-yl)-5-(pyridin-3-yl)-4,5-dihydro-6H-imidazo[1,5-b]pyrazol-6-one hydrogen chloride salt] |  | 

— patent publication US20250018068A1, “4H-IMIDAZO[1,5-B]PYRAZOLE DERIVATIVES FOR DIAGNOSIS” (AC IMMUNE SA, priority 2021, published 2025)
